Activity calls are given as the source filed them.
Assays:
[1] = target: T1, Endoribonuclease toxin MazF (Escherichia coli K-12, UniProt P0AE70); experiment: fluorescent RNA oligo signal without MazF, dose response, counter-screen for MazEF activator project, biochemical, fluorescence, single-stranded RNase substrate (AID 588502); format: functional
T1 sequence (P0AE70 whole entry): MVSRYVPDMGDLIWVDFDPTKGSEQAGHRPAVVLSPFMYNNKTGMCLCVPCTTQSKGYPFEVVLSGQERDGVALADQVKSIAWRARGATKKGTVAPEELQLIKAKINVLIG

[2] = target: T2, RNA-binding protein pos-1 (Caenorhabditis elegans, UniProt G5EF15); experiment: inhibitors of POS-1/mex-3 RNA binding, dose response, biochemical, fluorescence polarization (AID 1964);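 also: purified POS-1 fused to maltose binding protein made in E. coli; potency of compounds blocking POS-1 binding to fluorescent RNA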
T2 sequence (G5EF15 whole entry): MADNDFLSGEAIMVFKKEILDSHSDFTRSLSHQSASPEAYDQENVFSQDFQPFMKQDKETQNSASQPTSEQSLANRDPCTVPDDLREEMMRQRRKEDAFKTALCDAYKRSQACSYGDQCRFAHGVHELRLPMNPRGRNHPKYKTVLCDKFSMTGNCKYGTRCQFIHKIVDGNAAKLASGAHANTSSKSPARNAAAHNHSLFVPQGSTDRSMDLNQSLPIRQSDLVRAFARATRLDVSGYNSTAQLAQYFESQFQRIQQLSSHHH

[3] = target: T1, Endoribonuclease toxin MazF; experiment: MazF toxin RNase activators, dose response, biochemical, fluorescence, single-stranded RNA substrate, uHTS hits (AID 588481); format: functional
[4] = target: T3, Corticotropin-releasing factor receptor 2/Corticotropin-releasing factor-binding protein (Homo sapiens, UniProt P24387+Q13324); experiment: activators of CRF receptor 2 with binding protein – uHTS hits, confirmation (AID 602473); format: functional; details: read-out: EC50_Mean
T3 sequence (Q13324 whole entry): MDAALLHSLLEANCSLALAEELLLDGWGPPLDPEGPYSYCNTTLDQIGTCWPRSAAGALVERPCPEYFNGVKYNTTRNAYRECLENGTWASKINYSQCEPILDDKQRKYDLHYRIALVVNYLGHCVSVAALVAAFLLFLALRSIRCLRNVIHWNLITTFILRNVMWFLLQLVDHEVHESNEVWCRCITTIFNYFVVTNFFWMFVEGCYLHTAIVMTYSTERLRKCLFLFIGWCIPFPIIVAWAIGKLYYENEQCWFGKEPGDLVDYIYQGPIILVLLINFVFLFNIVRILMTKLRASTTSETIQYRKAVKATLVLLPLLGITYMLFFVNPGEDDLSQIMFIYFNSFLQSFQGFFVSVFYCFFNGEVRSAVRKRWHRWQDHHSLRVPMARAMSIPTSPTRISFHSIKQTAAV
T3 sequence (P24387 whole entry): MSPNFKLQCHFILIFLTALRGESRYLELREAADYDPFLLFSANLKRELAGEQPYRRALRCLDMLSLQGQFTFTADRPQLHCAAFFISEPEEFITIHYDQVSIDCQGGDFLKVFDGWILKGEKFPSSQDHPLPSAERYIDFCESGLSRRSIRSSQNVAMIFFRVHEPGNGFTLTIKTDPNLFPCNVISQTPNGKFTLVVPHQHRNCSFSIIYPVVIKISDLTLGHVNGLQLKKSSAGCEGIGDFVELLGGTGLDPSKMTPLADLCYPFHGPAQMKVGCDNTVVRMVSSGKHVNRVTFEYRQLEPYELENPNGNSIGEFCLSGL

[5] = target: T4, Zinc finger protein mex-5 (Caenorhabditis elegans, UniProt Q9XUB2); experiment: MEX-5/TCR-2 RNA interaction inhibitors, dose response, biochemical, C. elegans, fluorescence polarization (AID 1960)
T4 sequence (Q9XUB2 whole entry): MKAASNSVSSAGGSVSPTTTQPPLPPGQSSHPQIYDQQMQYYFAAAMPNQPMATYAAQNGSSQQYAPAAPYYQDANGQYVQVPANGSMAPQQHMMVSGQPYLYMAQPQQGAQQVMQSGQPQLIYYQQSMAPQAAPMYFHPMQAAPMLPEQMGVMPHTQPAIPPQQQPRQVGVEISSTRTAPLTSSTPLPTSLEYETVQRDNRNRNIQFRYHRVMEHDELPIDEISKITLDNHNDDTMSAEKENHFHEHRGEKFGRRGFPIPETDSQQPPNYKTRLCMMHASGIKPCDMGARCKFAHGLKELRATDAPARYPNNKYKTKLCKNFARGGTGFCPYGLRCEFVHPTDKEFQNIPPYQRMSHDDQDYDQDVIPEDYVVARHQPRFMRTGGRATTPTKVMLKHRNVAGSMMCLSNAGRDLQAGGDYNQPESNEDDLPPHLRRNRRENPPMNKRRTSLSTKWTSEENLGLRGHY

HEK293 [6] = experiment: optical interference in Abeta FP readout, dose response, artefact control for IDE activator project, biochemical, fluorescence polarization (AID 588442); format: functional, cell-based; details: Homo sapiens
HEK293 [7] = experiment: HEK cell cytotoxicity by LDH release, dose response, cytotoxicity control for IDE activator project, fluorescence, HEK cells (AID 588440); format: functional, cell-based; details: Homo sapiens;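 also: cytotoxicity by LDH release measuring loss of membrane integrity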
Insulin-degrading enzyme [8] = target: T5, Insulin-degrading enzyme (Homo sapiens, UniProt P14735); experiment: activators of recombinant IDE enzyme, dose response, counter-screen for IDE activator project, biochemical, fluorescence polarization (AID 588681)
T5 sequence (P14735 whole entry): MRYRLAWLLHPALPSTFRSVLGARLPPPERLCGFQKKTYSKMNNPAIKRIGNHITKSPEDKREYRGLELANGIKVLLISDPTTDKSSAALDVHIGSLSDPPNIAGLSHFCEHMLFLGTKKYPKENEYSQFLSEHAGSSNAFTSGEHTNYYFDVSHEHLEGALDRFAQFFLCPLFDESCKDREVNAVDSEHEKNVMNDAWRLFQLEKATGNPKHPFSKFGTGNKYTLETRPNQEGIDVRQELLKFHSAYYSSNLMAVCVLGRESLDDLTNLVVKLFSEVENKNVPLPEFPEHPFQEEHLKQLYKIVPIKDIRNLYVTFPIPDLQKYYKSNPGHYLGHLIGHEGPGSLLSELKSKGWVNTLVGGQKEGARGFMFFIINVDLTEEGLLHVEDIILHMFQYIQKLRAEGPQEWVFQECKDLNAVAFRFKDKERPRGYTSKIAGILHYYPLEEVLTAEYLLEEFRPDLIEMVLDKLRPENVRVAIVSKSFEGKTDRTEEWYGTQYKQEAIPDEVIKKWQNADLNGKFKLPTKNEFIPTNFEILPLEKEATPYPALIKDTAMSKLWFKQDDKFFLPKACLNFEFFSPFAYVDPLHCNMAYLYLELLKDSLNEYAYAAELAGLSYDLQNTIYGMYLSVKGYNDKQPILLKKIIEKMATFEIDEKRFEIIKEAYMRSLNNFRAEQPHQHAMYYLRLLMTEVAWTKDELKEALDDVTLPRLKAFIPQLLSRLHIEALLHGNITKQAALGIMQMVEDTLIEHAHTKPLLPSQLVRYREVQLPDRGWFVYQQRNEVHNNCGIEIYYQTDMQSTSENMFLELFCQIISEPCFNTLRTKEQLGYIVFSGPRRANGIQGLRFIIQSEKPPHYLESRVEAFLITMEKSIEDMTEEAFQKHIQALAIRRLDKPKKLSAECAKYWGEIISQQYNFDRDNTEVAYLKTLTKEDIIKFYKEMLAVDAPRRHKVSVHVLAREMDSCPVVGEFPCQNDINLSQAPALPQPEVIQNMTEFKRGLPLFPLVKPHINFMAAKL

Nonstructural protein 1 = Nonstructural protein 1 (Influenza A virus, UniProt Q194T2); format: functional, Influenza A virus (A/California/07/2009(H1N1))
Chain of Nonstructural protein 1 (Q194T2 whole entry): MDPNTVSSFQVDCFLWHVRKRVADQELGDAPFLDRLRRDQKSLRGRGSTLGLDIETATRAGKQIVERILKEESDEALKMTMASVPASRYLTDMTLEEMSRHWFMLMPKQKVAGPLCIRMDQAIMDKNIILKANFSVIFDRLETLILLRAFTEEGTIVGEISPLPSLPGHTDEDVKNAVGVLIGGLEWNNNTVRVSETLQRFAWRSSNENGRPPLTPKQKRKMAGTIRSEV

Insulin-degrading enzyme [9] = target: T5, Insulin-degrading enzyme; experiment: activators of endogenous IDE in HEK cells, dose response, cell-based, fluorescence polarization (AID 588439); format: functional
[10] = target: T6, Aryl hydrocarbon receptor (Homo sapiens, UniProt P35869); details: Potency;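 also: confirmatory quantitative high-throughput screen measuring activation of the AhR signaling pathway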
T6 sequence (P35869 whole entry): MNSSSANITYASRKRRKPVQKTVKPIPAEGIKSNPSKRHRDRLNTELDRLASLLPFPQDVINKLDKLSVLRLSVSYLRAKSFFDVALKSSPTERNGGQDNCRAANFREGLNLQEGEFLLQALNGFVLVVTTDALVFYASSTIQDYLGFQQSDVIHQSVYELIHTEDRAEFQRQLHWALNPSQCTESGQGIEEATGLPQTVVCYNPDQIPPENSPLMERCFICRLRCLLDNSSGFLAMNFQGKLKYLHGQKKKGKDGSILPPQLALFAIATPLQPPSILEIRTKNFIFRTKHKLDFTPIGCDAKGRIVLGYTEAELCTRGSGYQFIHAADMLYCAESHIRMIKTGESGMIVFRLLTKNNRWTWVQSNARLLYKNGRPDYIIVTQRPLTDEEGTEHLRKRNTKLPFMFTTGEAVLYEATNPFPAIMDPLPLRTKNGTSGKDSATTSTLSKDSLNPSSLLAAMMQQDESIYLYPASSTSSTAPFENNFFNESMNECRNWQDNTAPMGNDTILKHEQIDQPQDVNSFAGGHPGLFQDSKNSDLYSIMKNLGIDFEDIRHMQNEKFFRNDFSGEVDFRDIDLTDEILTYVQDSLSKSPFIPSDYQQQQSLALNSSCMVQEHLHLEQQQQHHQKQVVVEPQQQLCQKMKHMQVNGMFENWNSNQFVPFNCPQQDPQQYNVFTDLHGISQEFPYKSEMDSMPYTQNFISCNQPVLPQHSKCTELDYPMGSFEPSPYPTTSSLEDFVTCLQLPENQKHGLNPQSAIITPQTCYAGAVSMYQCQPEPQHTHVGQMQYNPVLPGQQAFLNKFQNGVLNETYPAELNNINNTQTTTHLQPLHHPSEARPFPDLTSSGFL

[11] = target: T7, Low molecular weight phosphotyrosine protein phosphatase (Homo sapiens, UniProt P24666); format: functional; details: read-out: IC50_Mean
T7 sequence (P24666 whole entry): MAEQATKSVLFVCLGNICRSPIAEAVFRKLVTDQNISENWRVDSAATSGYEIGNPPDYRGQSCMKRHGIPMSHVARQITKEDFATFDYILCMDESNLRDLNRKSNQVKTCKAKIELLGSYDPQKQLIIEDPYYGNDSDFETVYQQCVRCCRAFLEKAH

[12] = target: T7, Low molecular weight phosphotyrosine protein phosphatase; format: functional; details: read-out: IC50_Mean; remark: listed apart in the source
[13] = target: T8, Sentrin-specific protease 1 (Homo sapiens, UniProt Q9P0U3); experiment: Dose response confirmation of small molecule inhibitors of the catalytic domain of the SUMO protease, SENP1 in a FRET assay.; format: functional; details: read-out: IC50_Mean
T8 sequence (Q9P0U3 whole entry): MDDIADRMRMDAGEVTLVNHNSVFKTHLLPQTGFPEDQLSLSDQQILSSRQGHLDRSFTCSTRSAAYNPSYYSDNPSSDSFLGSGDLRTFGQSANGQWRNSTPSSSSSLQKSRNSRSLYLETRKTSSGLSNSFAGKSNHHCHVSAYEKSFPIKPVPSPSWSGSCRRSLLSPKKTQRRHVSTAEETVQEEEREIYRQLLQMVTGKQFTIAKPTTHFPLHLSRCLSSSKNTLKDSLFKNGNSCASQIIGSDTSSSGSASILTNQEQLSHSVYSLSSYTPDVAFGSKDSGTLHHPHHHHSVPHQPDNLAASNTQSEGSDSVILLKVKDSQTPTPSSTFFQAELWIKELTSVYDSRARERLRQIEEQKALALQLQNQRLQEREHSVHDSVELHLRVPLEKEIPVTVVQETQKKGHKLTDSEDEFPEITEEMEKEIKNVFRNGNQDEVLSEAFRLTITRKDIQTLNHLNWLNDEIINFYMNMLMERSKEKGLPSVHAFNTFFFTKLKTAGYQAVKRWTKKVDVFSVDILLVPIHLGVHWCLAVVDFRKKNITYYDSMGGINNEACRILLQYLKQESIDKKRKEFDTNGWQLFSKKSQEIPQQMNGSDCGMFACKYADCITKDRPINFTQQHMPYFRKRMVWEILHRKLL

[14] = target: T8, Sentrin-specific protease 1; experiment: potency of human SENP1 inhibitors, dose response, biochemical, kinetic FRET (AID 651697); format: functional; details: read-out: IC50_Mean
[15] = CRF-BP/CRF-R2 complex antagonists, dose response, cell-based, uHTS hits, 384-well (AID 651639); format: functional, Homo sapiens; details: read-out: IC50_Mean
[16] = Luminescence Cell-Based Dose Retest to Confirm Inhibitors of Cancer Stem Cells. [Related pubchem assays (depositor defined):AID2717, AID2721]; format: functional; details: Homo sapiens
[17] = target: T3, Corticotropin-releasing factor receptor 2/Corticotropin-releasing factor-binding protein; experiment: Dose Response confirmation of uHTS hits for small molecule antagonists of the CRF-binding protein and CRF-R2 receptor complex.; format: functional; details: read-out: IC50_Mean

Compound: C=CCN1C(=O)/C(=C2/Sc3ccc(OC)cc3N2CC)SC1=S
- EC50 [1]: > 99 µM (inactive)
- EC50 [2]: > 300 µM (inconclusive)
- EC50 [3]: > 99 µM (inactive)
- EC50 [4]: > 53 µM (inactive)
- EC50 [5]: > 300 µM (not active)

Compound: O=C(O)c1ccc(N=Nc2c(O)ccc3ncccc23)cc1
- EC50 (HEK293 [6]): 30.9 µM (inactive)
- IC50 (HEK293 [7]): > 89.2 µM (inactive)
- EC50 (Insulin-degrading enzyme [8]): 6.69 µM (active)
- IC50 (Nonstructural protein 1): 3.07 µM (active)
- EC50 (Insulin-degrading enzyme [9]): 7.38 µM (active)

Compound: C1=C/CC/C=C/CC/C=C/CC/1
- AC50 [10]: 44.7 µM (inconclusive)

Compound: O=C(OCCNc1nc(-c2ccccc2)nc2ccccc12)c1cccnc1
- IC50 [11]: 7.51 µM (active)
- IC50 [12]: 23.1 µM (inactive)

Compound: NC(=S)c1cc2cc(Br)ccc2oc1=O
- IC50 [13]: 3.31 µM (active)
- IC50 [14]: 5.2 µM (active)

Compound: CCN(c1ccccc1)c1nc(C#N)nc(N(CC)c2ccccc2)n1
- IC50 [15]: 6 µM (active)
- AC50 [16]: 3.66 µM (active)
- IC50 [17]: 0.723 µM (active)
- EC50 [4]: > 53 µM (inactive)

From ChEMBL document CHEMBL1201862, “PubChem BioAssay data set” (2004)
